Earlier results as cited in patent US20170027976A1, “NOVEL ADEMETIONINE FORMULATIONS” (METHYLATION SCIENCES INTERNATIONAL SRL, priority 2014, published 2017).

Details: background statement; large daily doses required

uptake of ademetionine: < 5%
SMILES: C[S+](CC[C@H](N)C(=O)[O-])C[C@H]1O[C@@H](n2cnc3c(N)ncnc32)[C@H](O)[C@@H]1O (stereo partly drawn) [ademetionine, S-adenosyl-L-methionine]
